Data published in US10492511B2, “Preparations” (Symrise AG, priority 2012, dated 2019).

Experiments:
[1] = Inhibition of crystal growth (KWI) of hydroxyapatite, KOH consumption at pH 7.4; conditions: 100 mg hydroxyapatite, pH 7.4, 2 hours
Method: In order to determine inhibition of crystal growth (KWI in %) by hydroxyapatite, a blind test was also first conducted. For this purpose, a reaction vessel with 400 ml of a 0.0008 molar solution of KH2PO4 and 45 ml of a 0.012 molar solution of CaCl2 was prepared. This solution was adjusted to a pH of 7.4 by titration with a 0.05 molar solution of KOH. After a stable pH value had been maintained for at least 30 minutes, 100 mg of hydroxyapatite powder (spec. surface area 60 m^2/g, Merck) was added. The pH value of the suspension was kept at a constant value of 7.4 by means of an automatic burette which can be used to add 0.05 molar KOH solution. The amount of 0.05 molar KOH solution consumed in order to stabilize the pH was registered with a recorder. The consumption of KOH solution (Ku) registered after 2 hours was equivalent to the formation of hydroxyapatite (growth of crystals in the suspension).
Inhibition of crystal growth by the active ingredient was calculated as follows: KWI (%)=(Ku−Kb)*100/Ku (%)

[2] = Reduction in apatite solubility (ALR), lactic acid consumption at pH 5; conditions: 0.5 g hydroxyapatite in 300 ml water, 37° C., pH 5, 2 hours
Method: In order to determine the reduction in apatite stability, a blind test was first conducted. For this purpose, a reaction vessel with 300 ml of desalinated water was temperature-controlled to 37° C., and 0.5 g of hydroxyapatite powder (spec. surface area 60 m^2/g, Merck) was suspended therein. The pH value of the suspension was kept at a constant value of 5 by means of an automatic burette used to add lactic acid. The amount of 0.1 molar lactic acid consumed in order to stabilize the pH was registered with a recorder.
The reduction in apatite solubility (ALR in %) caused by the active ingredient was calculated as follows: ALR (%)=(Lu−Lb)*100/Lu (%)

[3] = 150 mg active ingredient mixture
[4] = 30 mg active ingredient mixture

## CC1CCC(C(C)C)C2(C1)OCC(CO)O2 (centres unmarked) [Example V10, Menthone glyceryl acetal]
[1]; 5 mg active ingredient
  Crystal growth inhibition [%]: 9%
[1]; 6 mg active ingredient
  Crystal growth inhibition [%]: 17%
[2]; [3]
  Apatite solubility [%]: 13%

## Cc1ccc(C(C)C)c(OCC(=O)N(Cc2cccs2)c2cc[nH]n2)c1 [Example V11, 2-(2-isopropyl-5-methylphenoxy)-N-(1H-pyrazol-3-yl)-N-(thiophen-2-yl)-methylacetamide]
[1]; 5 mg active ingredient
  Crystal growth inhibition [%]: 11%
[1]; 6 mg active ingredient
  Crystal growth inhibition [%]: 16%
[2]; [4]
  Apatite solubility [%]: 5%
[2]; [3]
  Apatite solubility [%]: 14%

## COC(=O)C(C)O (centres unmarked) [Example V9, Methyl lactate]
[1]; 5 mg active ingredient
  Crystal growth inhibition [%]: 10%
[1]; 6 mg active ingredient
  Crystal growth inhibition [%]: 14%
[2]; [4]
  Apatite solubility [%]: 5%
[2]; [3]
  Apatite solubility [%]: 12%
